Experimental data published in PMC10305181, “A VEGFB-Based Peptidomimetic Inhibits VEGFR2-Mediated PI3K/Akt/mTOR and PLCγ/ERK Signaling and Elicits Apoptotic, Antiangiogenic, and Antitumor Activities” (Pharmaceuticals, 2023).

What was measured:
[1] = target: VEGFR2 extracellular domain (UniProt P35968); experiment: ELISA; ELISA-based displacement assay as in ref. 51 with modifications; 20 ng VEGFR2 extracellular domain; biotinylated VEGF (btVEGF165) displaced by peptide; C-VGB3 0-316 μM, L-VGB3 up to 3 mM; triplicate
Chain of UniProt P35968 (P35968 20-764): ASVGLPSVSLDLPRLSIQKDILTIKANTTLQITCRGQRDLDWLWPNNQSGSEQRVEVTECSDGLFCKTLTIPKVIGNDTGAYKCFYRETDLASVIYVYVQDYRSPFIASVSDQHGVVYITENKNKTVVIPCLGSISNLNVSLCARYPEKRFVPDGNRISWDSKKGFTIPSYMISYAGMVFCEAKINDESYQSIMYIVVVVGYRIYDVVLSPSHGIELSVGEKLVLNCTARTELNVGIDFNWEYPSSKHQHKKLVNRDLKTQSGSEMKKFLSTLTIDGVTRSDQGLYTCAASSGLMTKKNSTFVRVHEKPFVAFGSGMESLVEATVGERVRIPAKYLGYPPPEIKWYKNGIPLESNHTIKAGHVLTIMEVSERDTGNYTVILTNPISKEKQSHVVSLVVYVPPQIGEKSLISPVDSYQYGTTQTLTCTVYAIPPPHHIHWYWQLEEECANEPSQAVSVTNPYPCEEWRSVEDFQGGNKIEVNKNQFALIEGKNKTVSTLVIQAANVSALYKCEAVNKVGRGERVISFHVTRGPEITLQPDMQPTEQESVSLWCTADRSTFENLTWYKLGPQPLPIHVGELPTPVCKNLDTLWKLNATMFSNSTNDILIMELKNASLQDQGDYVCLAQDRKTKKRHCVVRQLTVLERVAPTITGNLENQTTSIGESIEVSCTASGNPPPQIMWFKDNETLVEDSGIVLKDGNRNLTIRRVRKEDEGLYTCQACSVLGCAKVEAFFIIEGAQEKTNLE

[2] = system: extracellular domain of VEGFR2 (KDR); experiment: ELISA-based displacement (competition binding) of biotinylated VEGF from VEGFR2
Method: Figure 3 The binding affinity of C-VGB3 to VEGFR2. (A) ELISA-based displacement assay. The gradient concentrations of C-VGB3 (0, 0.316, 1, 3.16, 10, 31.6, 100, and 316 μM) were used in the assay. […] Error bars denote ± SEM. n = 3; ** p = 0.001, *** p = 0.0001, **** p < 0.0001, ns = not significant; one-way ANOVA. (B) A three-dimensional (produced by UCSF chimera software version 1.12) and a two-dimensional representation (produced by LigPlot software) of interactions in the C-VGB3/VEGFR2 complex is shown on the left and the right, respectively.
A displacement assay was conducted as reported previously with some modifications, including using 20 ng of the VEGFR2 extracellular domains (R&D Systems, Minneapolis, MN, USA). Peptide compounds were assayed three times per experiment.
Figure S6. Evaluating the binding capability of L-VGB3 to VEGFR2
(A) ELISA-based displacement assay. The gradient concentrations of L-VGB3 (3.16, 10, […]
to the extracellular domain of VEGFR2 at applied concentrations. (B) Two-dimensional representation of interactions (produced by LigPlot software) in L-VGB3/VEGFR2 […]

[3] = body weight / tolerability of treated 4T1 tumor-bearing mice; type: in vivo; conditions: 0.2 mg·kg^−1 i.v. once every 2 days
Method: (§1) Figure 2 Loop formation is important for the antitumor activity of VGB3. (A) To investigate the efficacy of VGB3 peptides in vivo 13 days after transplantation of a 4T1 murine MCT into female BALB/c mice (the tumor volume ~150 mm^3), the treatment groups received 0.2 mg·kg^−1 (once every 2 days, i.v.) of either the C-VGB3 or L-VGB3 and the control group received PBS for 20 days. Error bars denote ± SEM. n = 6; **** p < 0.0001, ns = not significant; two-way ANOVA. (B) Investigation of C-VGB3 and L-VGB3 effects on mice weight. […] (C,D) Immunohistochemical (IHC) analyses of CD31 and Ki67 for the C-VGB3-, L-VGB3- and PBS-treated tumors. For IHC staining, the sections of tumor tissues were incubated with the primary mouse monoclonal antibodies for CD31 (1:2000 (v/v)) and Ki67 (5 µg·mL^−1). […] Photographs were taken at 40× magnification. Error bars denote ± SEM. n = 3; * 0.02 ≤ p ≤ 0.04, ns = not significant; one-way ANOVA.
(§2) The antitumor efficacy of the peptides was investigated as described previously. Thirteen days after implanting, tumor (~150 mm^3)-bearing mice were grouped randomly into control and treated animals (6/group). From day 13 to day 33, the treatment group received cyclic or linear VGB3 (0.2 mg·kg^−1), whereas the control group received an equal volume of PBS (i.v., once every two days). The volume of tumors was calculated as 0.52 × length × width^2. In addition, changes in the weight of animals were recorded every 2 days.

[4] = system: 4T1 murine MCT in female BALB/c mice; type: in vivo; conditions: 0.2 mg·kg^−1 i.v. once every 2 days, day 13 to 33; n = 6
Method: as §1
as §2, with “From day 13 to day 33, the treatment group received cyclic or linear VGB3 (0.2 mg·kg^−1), whereas the control group received an equal volume of PBS (i.v., once every two days).” left out

Ki67-positive cells = experiment: Ki67 immunohistochemistry of 4T1 tumors (proliferation); type: in vivo, murine; conditions: 0.2 mg·kg^−1 i.v.; n = 3
Method: as §1
For immunohistochemistry staining, deparaffinized tumor sections were incubated overnight at 4 °C with mouse monoclonal primary anti-Ki67 (5 µg·mL^−1) or anti-CD31 (1:2000 (v/v)). The antigens were detected using 3,3-diaminobenzidine. All images were captured and analyzed with an Olympus BX51 microscope (Olympus America, New York, NY, USA).

HUVE and 4T1 cell lines = experiment: MTT assay, HUVE and 4T1 cell lines (linear vs cyclic peptide, not separated); type: cell-based; conditions: cell line not specified at the place; 0–1.81 μM, 24 and 48 h
Method: The effects of C-VGB3 and L-VGB3 on the cell survival of HUVE and 4T1 cell lines were investigated using the MTT assay, as previously described, with some modifications. Cells were incubated with (0–1.81 μM) or without the peptide in the presence (20 ng·mL^−1) or in the absence of VEGF (Sigma-Aldrich, St. Louis, MO, USA). After 24 and 48 h of incubation at 37 °C, the absorbance at 570 nm was recorded using an ELISA plate reader (Space Fax 2100, Awareness, Palm City, FL, USA). The tests were repeated three times.

| percent displacement of btVEGF165 at 100 μM C-VGB3 [1] | Substance | binding to VEGFR2 extracellular domain ([2]; 3 mM, competition binding assay) | binding to VEGFR2 extracellular domain ([2]; 3.16-3160 μM, ELISA-based displacement assay) | toxicity at this dosage (weight gain) ([3]; three weeks) | mice weight vs control groups ([3]; two-way ANOVA) | inhibition of 4T1 MCT (tumor growth), in words [4] | decrease in Ki67-positive cells, in words (Ki67-positive cells) | antiproliferative property (HUVE and 4T1 cell lines) |
| --- | --- | --- | --- | --- | --- | --- | --- | --- |
| 58% | C-VGB3 (cyclic VGB3) (peptide) |  |  |  |  |  |  |  |
|  | H-ECRPPDDGLC-OH (cysteine pairing not given here) [L-VGB3, linear structure of VGB3] | no measurable binding | no binding | not toxic | no significant differences | no effect | ineffective | abolished |
